Reference: BindingDB's records for doi:10.1021/jm801176e (Nci-Frederick, 2009)
pIC50: −log10 of the molar value.

Assays:
[1] = Inhibition of HIV1 wild type reverse transcriptase-mediated viral DNA synthesis in human HOS cells assessed as luciferase activity treated 3 hrs before infection measured after 48 hrs by luminescence assay
[2] = Inhibition of HIV1 reverse transcriptase M184V mutant-mediated viral DNA synthesis in human HOS cells assessed as luciferase activity treated 3 hrs before infection measured after 48 hrs by luminescence assay
[3] = Inhibition of HIV1 reverse transcriptase M184V mutant-mediated viral DNA synthesis in human HOS-313 cells expressing HSV thymidine kinase assessed as luciferase activity treated 3 hrs before infection measured after 48 hrs by luminescence assay
[4] = Inhibition of HIV1 wild type reverse transcriptase-mediated viral DNA synthesis in human HOS-313 cells expressing HSV thymidine kinase assessed as luciferase activity treated 3 hrs before infection measured after 48 hrs by luminescence assay

| SMILES | pIC50 [1] | pIC50 [2] | pIC50 [3] | pIC50 [4] |
| --- | --- | --- | --- | --- |
| Cc1cn([C@@H]2C[C@H](CO)[C@@H](O)C2)c(=O)[nH]c1=O | 5.49 | 5.74 | 6.72 | – |
| Cc1cccc2c1OP(=O)(OC[C@H]1C[C@@H](n3cc(C)c(=O)[nH]c3=O)C[C@@H]1O)OC2 (stereo not given in full) | 6.42 | – | – | 6.92 |
